Laboratory results reported in US4853403A, “3-phenylthiomethylstyrene derivative, process for preparing the same, and antiallergic agent and tyrosinekinase inhibiting agent containing the same” (Kanegafuchi Kagaku Kogyo Kabushiki Kaisha, priority 1985, dated 1989).
Where two headings read alike, the source gives them in different places.

Experiments:
[1] = tested on: antigen-induced anaphylactic shock death; assay: Protective effect against anaphylactic shock in actively sensitized guinea pigs; type: in vivo, guinea pig (male); conditions: Cavia porcellus, oral, 30 minutes before antigen inhalation, survival 90 minutes or more, read-out: Protecting Effect (Number of test animal survivied/Number of test animal) (converted)
Protocol: [III] Protective effect against anaphylactic shock in actively sensitized guinea pigs
Antigen-induced anaphylactic shock death was observed according to John P. Devlin [Pulmonary and Antiallergic Drugs, John Wiley & Sons, 155 (1985)].
Each 100 mg/kg of ovalbumin dissolved in physiological saline was injected into peritoneal cavity and into gluteus of male guinea pigs weighing 250 to 350 g. 3 Days later, the animals were further injected intraperitoneally with ovalbumin (100 mg/kg). Those animals were employed for testing 3 to 4 weeks after first sensitization. Actively sensitized guinea pigs were pretreated subcutaneously with pyrilamine (1 mg/kg, 30 min.) to suppress histamine-dependent response and with propanolol ([…], 10 min.) to enhance the response induced by other than histamine before the antigen.
The animal was placed in a desiccator with a capacity of about 5 l and 0.5% aqueous solution of ovalbumin was inhaled with ultrasonic type nebulizer for five minutes. Anaphylactic shock death was observed and the animals survived for 90 minutes or more after antigen were estimated to be protected. The compounds of the present invention and antiasmatic agent were administered orally 30 minutes before the antigen inhalation. The control received vehicle alone similarly.

[2] = molecular target: T1, epidermal growth factor acceptor-tyrosinekinase complex (Homo sapiens, UniProt P00533); assay: Tyrosinekinase inhibitory activity (A-431 membrane specimen, EGF-stimulated, [γ-32P]ATP); type: biochemical, human (A-431 cell line derived from human cancerous cell); conditions: read-out: Inhibition rate (tyrosinekinase)
T1 construct: endogenous in cells; host or cells: A-431 (membrane specimen, not solubilized)
Protocol: Tyrosinekinase inhibitory activity of the compound of the present invention was measured by employing a method for measuring tyrosinekinase activity by G. Carpentor or by S. Cohen et al. [J. Biol. Chem., 254, 4884 (1979); J. Biol. Chem., 257, 1523 (1982)].
Cell line A-431 derived from human cancerous cell was cultured at 37° C. under the condition of 5% CO2 in Dulbecco's modified Eagle medium (made by DAINIPPON PHARMACEUTICAL CO., LTD.) containing 10% fetal bovine serum, 50 μg/ml of streptomycin, 50 IU/ml of penicillin G and 50 μg/ml of canamycin. The obtained cells were treated according to the above Cohen or Graham et al. to give membrane specimen containing epidermal growth factor acceptor-tyrosinekinase complex (hereinafter referred to as "membrane specimen"). The membrane specimen was employed in the following measurement without solubilization.
Sample dissolved in dimethylsulfoxide was added to a mixture of 20 mM of N-2-hydroxyethylpyperadino-N'-2-ethanesulfonate buffer (pH 7.4), 1 mM of MnCl2, 7.5 μg of bovine serum albumin and the membrane specimen (10 μg as protein). After incubation at 0° C. for 5 minutes, 100 ng of epidermal growth factor (hereinafter referred to as "EGF" was added and the mixture was further incubated at 0° C. for 15 minutes. [γ-^32 P]ATP (3000 Ci/mmol, 0.1 μCi) was added to make final volume of 70 μl. After incubation at 0° C. for 15 minutes, 50 μl of the reaction solution was soaked into Wattman 3 MM filter paper and immediately the reaction was stopped by 10% trichloroacetic acid-10 mM sodium pyrophosphate aqueous solution. The filter paper was sufficiently washed with the same solution and then washed with ethanol and dried. Radioactivity present in the filter paper was measured by liquid scintillation counter (A). Similarly, radioactivity was measured in case of the reaction without EGF (B), the reaction without the sample (C), and the reaction without both EGF and the sample (D) as a control.
Tyrosinekinase inhibition rate (%) was calculated by the following equation. [formula]

[3] = tested on: SRS-A biosynthesis or release; assay: SRS-A biosynthesis or release inhibitory activity (ovalbumin-challenged sensitized guinea pig lung fragments, bioassay on guinea pig ileum); type: cell-based, guinea pig (male Hartley); conditions: Cavia porcellus, read-out: Inhibition rate (SRS-A biosynthesis or release)
Protocol: [I] SRS-A biosynthesis or release inhibitory activity
SRS-A biosynthesis or release inhibitory activity was examined according to Koda et al. [Nippon yakurigakkaishi, 66, 194(1970)] and Kono-Watanabe et al. [J. Immunology, 125, 946(1980)].
Male Hartley guinea pigs weighing 350 to 450 g were sensitized by injecting once each 1 ml of an ovalbumin (100 mg/ml) into gluteus and peritoneal cavity. Four weeks after the injection, the animals were killed and then immediately the lung was perfused with cooled Tyrode's solution to remove blood. The lung was chopped into about 2 mm fragments and 500 mg of the fragments were suspended in 4.84 ml of Tyrode's solution, to which 0.01 ml of the test compound dissolved in dimethylsulfoxide (DMSO) was added. After incubation at 37° C. for 10 minutes, 0.15 ml of an ovalbumin (10 mg/ml) was added, followed by incubation at 37° C. for 20 minutes. In control, DMSO was added and the reaction was conducted in the same manner. The reaction mixture was filtered with gauze.
An amount of SRS-A in the filtrate was bioassayed using guinea pig ileum; i.e. the ileum (length: 2 to 3 cm) was suspended in Magnus tube containing aerated Tyrode's solution at 31° C. and, after the plateau of contraction was obtained, an amount of SRS-A in the above filtrate was bioassayed in the presence of 1 μM of atropine and 1 μM of pyrilamine. Inhibition rate (%) was calculated from a contraction in control as 100.

[4] = tested on: homologous passive cutaneous anaphylaxis (PCA); assay: Inhibitory activity against homologous passive cutaneous anaphylaxis (PCA) in rats; type: in vivo, rat (male Wistar); conditions: oral
Protocol: [II]Inhibitory activity against homologous passive cutaneous anaphylaxis (PCA) in rats
Antiserum was prepared according to I. Mota [Immunology, 7, 681(1964)] and the PCA reaction was conducted according to Maruyama et al. [Nippon yakurigakkaishi, 74, 179(1978)].
(1) Preparation of antiserum
An ovalbumin solution (2 mg/ml) was injected intramuscularly into both thighs of male Wistar rats weighing 200 to 260 g in a volume of 0.5 ml/100 g body weight, and pertussis vaccine (Bordetella pertussis, 2×10^10 /ml, Chibaken Kessei Kenkyujo) was intraperitoneally administered at 1 ml/rat. Twelve days later, blood was taken from posterior aorta under ether anesthesia and antiserum was stored at -80° C.
Group of 4 male Wistar rats weighing 180 to 210 g were employed. Back of the animals was shaved and each 0.05 ml of antiserum (1:32 dilution) was injected intradermally at four sites on the back. After 48 hours, 1 ml of a mixture of ovalbumin (1 mg/ml) and Evans blue (5 mg/ml) was injected intravenously into the tail. 30 Minutes later, the animals were killed under ether anesthesia. The blue-dyed area (mm^2) formed was measured and an inhibition rate(%) was calculated as compared with control.
Test compound suspended in a 2.5% acacia containing 0.2% Tween 80 was administered orally in a volume of 0.5 ml/100 g body weight 1 hour before the antigen. Tranilast was administered orally 30 minutes before the antigen.

[5] = 100 mg/kg, 1 hour before the antigen

T1 sequence (P00533 25-1210): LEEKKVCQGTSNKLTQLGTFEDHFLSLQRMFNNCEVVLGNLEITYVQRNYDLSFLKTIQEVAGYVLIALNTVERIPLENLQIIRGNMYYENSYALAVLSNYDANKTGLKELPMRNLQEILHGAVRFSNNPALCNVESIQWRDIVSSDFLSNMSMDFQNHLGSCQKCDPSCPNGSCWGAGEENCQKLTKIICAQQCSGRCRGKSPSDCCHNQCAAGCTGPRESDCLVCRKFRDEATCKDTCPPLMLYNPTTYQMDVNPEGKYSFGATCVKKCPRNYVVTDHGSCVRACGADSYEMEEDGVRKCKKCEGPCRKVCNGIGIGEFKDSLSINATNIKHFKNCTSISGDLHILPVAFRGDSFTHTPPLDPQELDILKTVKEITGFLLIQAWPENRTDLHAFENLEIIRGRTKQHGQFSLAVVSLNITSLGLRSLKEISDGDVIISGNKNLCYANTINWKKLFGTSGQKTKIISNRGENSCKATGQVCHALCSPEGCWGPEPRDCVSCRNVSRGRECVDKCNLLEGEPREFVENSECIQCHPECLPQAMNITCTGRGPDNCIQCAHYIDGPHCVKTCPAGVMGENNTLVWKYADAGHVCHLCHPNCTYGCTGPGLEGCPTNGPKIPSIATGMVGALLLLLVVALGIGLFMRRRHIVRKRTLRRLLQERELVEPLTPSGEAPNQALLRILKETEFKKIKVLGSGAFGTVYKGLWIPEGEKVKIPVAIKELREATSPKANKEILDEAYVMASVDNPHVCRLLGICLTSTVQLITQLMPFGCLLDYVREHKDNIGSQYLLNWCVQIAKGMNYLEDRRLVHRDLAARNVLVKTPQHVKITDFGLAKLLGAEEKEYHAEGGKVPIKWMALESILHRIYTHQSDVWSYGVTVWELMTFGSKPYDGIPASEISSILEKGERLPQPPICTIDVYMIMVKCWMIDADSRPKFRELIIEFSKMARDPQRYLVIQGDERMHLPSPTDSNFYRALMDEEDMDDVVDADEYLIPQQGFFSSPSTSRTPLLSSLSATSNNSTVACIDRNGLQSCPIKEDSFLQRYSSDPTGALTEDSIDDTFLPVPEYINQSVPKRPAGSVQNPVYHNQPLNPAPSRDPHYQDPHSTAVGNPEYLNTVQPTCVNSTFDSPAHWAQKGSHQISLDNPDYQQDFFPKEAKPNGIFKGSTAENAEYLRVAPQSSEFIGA
T1 sequence (P01132 977-1029 partner limits assumed): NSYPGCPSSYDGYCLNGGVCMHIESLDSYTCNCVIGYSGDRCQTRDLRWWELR

| SMILES | responders at 30 mg/kg [1] [%] | inhibition at 10 µM ([2]; 10 μM) [%] | responders at 100 mg/kg [1] [%] | also measured |
| --- | --- | --- | --- | --- |
| CCOc1cc(C=C(C#N)C(N)=O)cc(CSc2ccc(C)cc2)c1O [IX] | 50 | 58 |  |  |
| CCOC(=O)C(=Cc1cc(CSc2ccc(C(C)(C)C)cc2)c(O)c(OCC)c1)S(C)(=O)=O [XXIII] |  | 40 | 25 |  |
| CCOc1cc(C=C2CCNC2=O)cc(CSc2ccccc2)c1OC(=O)c1ccccc1 [XXX] | 50 | 32 |  |  |
| O=C1NN(c2ccccc2)C(=O)C1=Cc1cc(O)c(O)c(CSc2ccccc2)c1 [XXXIV] | 50 | 96 |  |  |
| CCOc1cc(C=C2C(=O)NN(c3ccccc3)C2=O)cc(CSc2ccccc2)c1O [XXXI] |  | 92 | 20 | inhibition at 100 µM [3]: 59%; Inhibition rate (PCA reaction, blue-dyed area) [4, 5]: 30%; inhibition at 100 µM [2]: 100% |
| Cn1c(=O)c2[nH]cnc2n(C)c1=O [theophylline, reference compound] | 50 |  |  |  |
| CCOc1cc(C=C(C#N)C(N)=O)cc(CSc2ccc(Cl)c(Cl)c2)c1O [XV] | 100 | 69 |  |  |
| CCOc1cc(C=C(C#N)C(N)=O)cc(CSc2cccc(Cl)c2)c1O [XI] |  | 54 | 25 |  |
| COc1cc(C=C(C#N)C(N)=O)cc(CSc2ccccc2)c1O [XII] | 50 |  |  | inhibition at 10 µM [2]: 86% |
| CCOc1cc(C=C(C#N)C(N)=O)cc(CSc2ccc(C(C)(C)C)cc2)c1O [XVIII] | 75 | 37 |  |  |
| CCOc1cc(C=C(C#N)C(N)=O)cc(CSc2ccc(OC)cc2)c1O [II] | 75 | 42 |  |  |
| CCOc1cc(C=C(C#N)C(N)=O)cc(CSc2cccc(OC)c2)c1O [VIII] |  | 72 | 25 |  |
| CCOc1cc(C=C(C#N)C(N)=O)cc(CSc2ccc(Cl)cc2)c1O [XIV] | 100 | 29 |  |  |
| CCCCOc1cc(C=C2C(=O)NN(c3ccccc3)C2=O)cc(CSc2ccccc2)c1O [XXXV] |  | 100 | 25 |  |
| CCOc1cc(C=C(C#N)C(N)=O)cc(CSc2ccc(O)cc2)c1O [XX] |  | 91 | 25 |  |
| CCOc1cc(C=C(C#N)C(N)=O)cc(CSc2ccccc2)c1O [I] |  | 100 | 40 | inhibition at 100 µM [3]: 92%; Inhibition rate (PCA reaction, blue-dyed area) [4, 5]: 21%; inhibition at 100 µM [2]: 100% |
| CCOc1cc(C=C2C(=O)NN(c3ccccc3)C2=O)cc(CSc2ccc(Cl)cc2)c1O [XXXVI] |  | 91 | 25 |  |
| O=C1OCCC1=Cc1cc(O)c(O)c(CSc2ccc([N+](=O)[O-])cc2)c1 [XXVI] |  | 35 | 25 |  |

| SMILES | responders at 30 mg/kg [1] [%] | inhibition at 10 µM ([2]; 10 μM) [%] | responders at 100 mg/kg [1] [%] | also measured |
| --- | --- | --- | --- | --- |
| CCOc1cc(C=C(C#N)C(N)=O)cc(CSc2ccccc2C(=O)OC)c1OC(C)=O [XXI] |  | 31 | 25 |  |
| CCOc1cc(C=C(C#N)C(N)=O)cc(CSc2ccc([N+](=O)[O-])cc2)c1O [III] |  | 42 | 25 |  |
| CCOc1cc(C=C(C#N)C(N)=O)cc(CSc2ccccc2)c1OC(=O)c1ccccc1 [XVI] |  | 40 | 25 |  |
| COc1ccc(/C=C/C(=O)Nc2ccccc2C(=O)O)cc1OC [tranilast, reference compound] |  |  | 0 | Inhibition rate (PCA reaction, blue-dyed area) ([4]; 300 mg/kg, 30 minutes before the antigen (tranilast)): 40% |
| CCOc1cc(C=C(C#N)C(N)=O)cc(CSc2ccc(Br)cc2)c1O [IV] |  | 74 | 25 |  |
| CCOc1cc(C=C(C#N)C(N)=O)cc(CSc2c(Cl)cccc2Cl)c1O [X] | 75 | 44 |  |  |
| CCOc1cc(C=C2CCNC2=O)cc(CSc2ccccc2)c1O [XXVII] |  | 96 | 75 | inhibition at 100 µM [3]: 100%; Inhibition rate (PCA reaction, blue-dyed area) [4, 5]: 25%; inhibition at 100 µM [2]: 100% |
| N#CC(=Cc1cc(O)c(O)c(CSc2ccccc2)c1)C(N)=O [XIX] |  | 100 | 25 |  |
| COc1cc(C=C2C(=O)NN(c3ccccc3)C2=O)cc(CSc2ccccc2)c1O [XXXII] |  | 100 | 25 |  |
| CCOc1cc(C=C(C#N)C(N)=O)cc(CSc2ccccc2OC)c1O [VII] | 75 | 77 |  |  |
| CCOc1cc(C=C(C#N)C(N)=O)cc(CSc2ccccc2)c1OC(C)=O [XVII] |  | 36 | 25 |  |
| CCOc1cc(C=C2CCOC2=O)cc(CSc2ccc(Cl)c(Cl)c2)c1O [XXV] | 75 | 27 |  |  |
| CCOc1cc(C=C2CCNC2=O)cc(CSc2ccc(OC)cc2)c1OC [XXIX] |  | 30 | 25 |  |
| CCOc1cc(C=C(C#N)C(N)=O)cc(CSc2ccccc2)c1OC [XIII] | 50 | 31 |  |  |
| CCOc1cc(C=C(C#N)C(N)=O)cc(CSc2c(F)c(F)c(F)c(F)c2F)c1O [V] | 50 | 60 |  |  |
| CCOc1cc(C=C2C(=O)NN(c3ccccc3)C2=O)cc(CSc2ccc(Br)cc2)c1O [XXXIII] | 75 | 71 |  |  |
| CCOc1cc(C=C(C#N)C(N)=O)cc(CSCCCc2ccccc2)c1O [VI] |  | 55 | 25 |  |
| COc1cc(C=C2CCNC2=O)cc(CSc2ccc(C)cc2)c1O [XXVIII] |  | 55 | 25 |  |
